Measurements reported in US9334235B2, “Plasmalogen compounds, pharmaceutical compositions containing the same and methods for treating diseases of the aging” (Phenomenome Discoveries Inc., priority 2008, dated 2016).

Legend:
N-Rel cells [1] = assay: Membrane cholesterol and cholesterol ester analysis (colorimetric kit) in N-Rel cells; format: cell-based, Chinese hamster; conditions: for membrane free cholesterol / membrane cholesterol esters (esterified cholesterol): 20 μM, 48 hr incubation; for membrane cholesterol levels: N-Rel cells
Procedure: (§1) Chinese hamster ovary (CHO), N-Rel^30 (a mutant CHO cell line deficient in the peroxisomal enzyme dihydroxyacetonephosphate acyltransferase), and human embryonic kidney (HEK293) cells were grown in 10 cm^2 dishes in DMEM/Ham's F12 (1:1) containing 10% FBS. Cells were incubated with plasmalogen precursors dissolved in ethanol (final ethanol concentration of 0.1%) and harvested for plasmalogen analysis by LC-MS-MS^31, and cholesterol and cholesterol ester analyses utilizing a commercial colorimetric kit (BioVision #K613).

HEK293 cells [2] = assay: Cholesterol assay (free/esterified cholesterol) in HEK293 cells; format: cell-based, human; conditions: for membrane cholesterol (membrane free cholesterol levels): 20 μM
Procedure: as §1
(§2) HEK 293 cells, cultured in DMEM, 10% FBS at 37° C., 5% CO2, were seeded the day before the treatment. The following day, cells membranes were loaded with exogenous cholesterol at a concentration of 10 μg/ml media using methyl-β-cyclodextrin as the carrier to deliver cholesterol as described (Rong et al., 2003).
Cells were treated with the plasmalogen precursor PPI-1005 or with ethanol as the control. Cells were harvested after 48 hours using Versene: TryPLe express cocktail, washed with PBS. Lipids were extracted with chloroform containing 1% Triton X-100. The organic fraction was recovered and dried under a stream of nitrogen. The dried lipids were resuspended in cholesterol reaction buffer (Biovision, Mountain View, Calif.), and the total, free and esterified fractions of cholesterol were quantified using the cholesterol quantification kit (Biovision, Mountain View, Calif.) as per the manufacturer's recommendations. Cholesterol was initially calculated as μg/million cells, and reported as a percentage of control conditions for each experiment.

[3] = Oral dosing of rabbits: plasma plasmalogens, phosphatidylethanolamines and DHA by LC-MS/MS; format: in vivo, New Zealand rabbits
Procedure: (§3) Male New Zealand rabbits (1.8-2.5 kg) were orally dosed with PPI-1011, neat in hard gelatin capsules (size 3). For time course studies, rabbits were dosed with 200 mg/kg of PPI-1011 and animals sacrificed via euthenol overdose at 1, 3, 6, 12, 18, 24 and 48 hr. Blood was collected by cardiac puncture and plasma frozen at −70° C. for later analysis. Kidney and liver also were harvested and stored at −70° C. for later analysis. These studies were conducted as 2 experiments with overlapping groups at 12 hrs (Exp. 1: 1, 3, 6, and 12 hrs; Exp. 2: 12, 18, 24 and 48 hrs). Controls were harvested at each timepoint. Plasmalogens and lipids were extracted and analyzed by LC-MS/MS as previously reported (Goodenowe et al., 2007).

[4] = Oral dosing of rabbits: kidney plasmalogens and DHA; format: in vivo, New Zealand rabbits; conditions: 200 mg/kg orally; 1, 3, 6 and 12 hours
Procedure: as §3

[5] = Oral dosing of rabbits: liver plasmalogens and DHA; format: in vivo, New Zealand rabbits; conditions: 200 mg/kg orally; 12, 18, 24 and 48 hours
Procedure: as §3

N-Rel cells [6] = assay: Plasmalogen analysis by LC-MS/MS in N-Rel cells incubated with plasmalogen precursors; format: cell-based, Chinese hamster; conditions: for conversion to PlsEtn species: cells with impaired plasmalogen biosynthesis capacity (N-Rel)
Procedure: as §1

CHO cells = assay: Plasmalogen analysis by LC-MS/MS in CHO cells incubated with plasmalogen precursors; format: cell-based, Chinese hamster; conditions: for DHA plasmalogens in CHO cells: 72 hr, relative to CHO controls; for conversion to PlsEtn species: cells with unimpaired plasmalogen biosynthesis capacity (CHO)
Procedure: as §1

HEK293 cells [7] = assay: Amyloid assay: Aβ secreted into conditioned medium of HEK293 cells (ELISA); format: cell-based, human; conditions: for levels of AB-40 / levels of AB-42: normal cells and cholesterol loaded cells
Procedure: as §2
HEK293 cells were loaded with exogenous cholesterol as described, and treated with a PPI 1005 or with ethanol as a control. Conditioned media from the treated cells was collected at the end of a 48 hour incubation period. For assaying Aβ1-42 content, the conditioned media was enriched using Amicon ultracentrifugal filter devices (Millipore, Billerica, Mass.) prior to loading into the microplate. ELISA was carried out as per the manufacturer's recommendations (Covance Labs, Princeton, N.J.). The reactions were quenched 25 minutes after addition of the substrate, and the absorbance was read at 495 nm. The experiment was carried out in triplicate. Values were calculated as pg/ml of conditioned media, and were normalized to the amount of Aβ detected in the conditioned media from untreated, cholesterol loaded control HEK293 cells.

SOAT1 = assay: Immunoblotting of membrane-resident protein SOAT1 in HEK293 cells; format: cell-based, human
Procedure: (§4) HEK293 cells were treated as described in the amyloid assay. The cell pellet was washed in PBS and lysed in a RIPA buffer containing a protease inhibitor cocktail (Sigma, St. Louis, […].). Protein in the cell lysate was quantified using the Bio-Rad Protein Assay (Bio-Rad, Hercules, Calif.). The following antibodies were used for western analyses: APP (Calbiochem, Darmstadt, Germany), BACE1 and ADAM10 (Millipore, Temecula, Calif.), sAPPα (IBL, Gunma, Japan), SOAT1 (Santa Cruz Biotechnology Inc., CA), and β-actin (Sigma, St. Louis, […].). Immunoprecipitation was carried out to estimate sAPPα in the conditioned medium. Briefly, antibody to sAPPα was added to conditioned media and incubated for 16 hours at 4° C. IP was carried out by incubating with protein A/G agarose beads for 6 hours at 4° C. Beads were washed with PBS and the eluted proteins were detected by immunoblotting with anti-sAPPα antibody. Band intensities were quantified using Image Processing and Analysis in Java (ImageJ) software (National Institutes of Health, Bethesda, Md.)

BACE1 = assay: Immunoblotting of BACE1 (β-secretase) in HEK293 cells; format: cell-based, human
Procedure: as §4

APP = assay: Immunoblotting of APP in HEK293 cells; format: cell-based, human; conditions: wild-type HEK293 cells, not loaded with cholesterol
Procedure: as §4

sAPPα = assay: Immunoprecipitation/immunoblot of sAPPα in conditioned medium of HEK293 cells; format: cell-based, human; conditions: 20 μM; cholesterol loaded HEK293 cells
Procedure: as §4

ADAM10 = assay: Immunoblotting of membrane-resident protein ADAM10 in HEK293 cells; format: cell-based, human
Procedure: as §4

[8] = cholesterol loaded HEK293 cells (FIG. 18A)
[9] = wild-type HEK293 cells, not loaded with cholesterol

CCC=CCC=CCC=CCC=CCC=CCC=CCCC(=O)OC(CO)COC(=O)CCCCCCCCCCCCCCC (stereo not shown) [16:0*:DHA glycerol, reference compound]
membrane free cholesterol (N-Rel cells [1]): inactive
membrane cholesterol (membrane free cholesterol levels) (HEK293 cells [2]; 48 hr incubation): inactive

CC/C=C\C/C=C\C/C=C\C/C=C\C/C=C\C/C=C\CCC(=O)OC(COCCCCCCCCCCCCCCCC)COC(=O)CCCC[C@@H]1CCSS1 (stereo partly drawn) [PPI-1011, (4Z,7Z,10Z,13Z,16Z,19Z)-1-(5-((R)-1,2-dithiolan-3-yl)pentanoyloxy)-3-(hexadecyloxy)propan-2-yl docosa-4,7,10,13,16,19-hexaenoate]
new steady-state level of plasma plasmalogens and phosphatidylethanolamines versus dose ([3]; 6 hours after oral doses of 10, 75, 200 mg/kg): dose-dependent manner from 10 to 200 mg/kg
steady-state levels of circulating DHA ([3]; dose of 1000 mg/kg versus 500 mg/kg): did not further increase
steady-state levels of plasmalogens and phosphatidylethanolamines above that obtained with 200 mg/kg ([3]; further increases in dose (500, 1000 mg/kg), 6 hours): did not increase
deacylation at sn-2, releasing docosahexaenoic acid (DHA) ([3]; oral dose of 200 mg/kg): observed
reference phosphatidylethanolamine 16:0/18:0 in plasma ([3]; oral dose of 200 mg/kg): No change
incorporation into circulating plasmalogens ([3]; oral dose of 200 mg/kg, rabbit plasma): incorporated into circulating plasmalogens
oral bioavailability ([3]; rabbit): orally bioavailable
tissue plasmalogens and DHA in rabbit kidney [4]: augmentation
tissue plasmalogens and DHA in rabbit liver [5]: augmentation

CCC=CCC=CCC=CCC=CCC=CCC=CCCC(=O)OC(CO)COCCCCCCCCCCCCCCCCCC (stereo not shown) [18:0/DHA glycerol]
membrane cholesterol (membrane free cholesterol levels) (HEK293 cells [2]; 48 hr incubation): decrease

CCCCCCCCCCCCCCCCOCC(O)CO (stereo not shown) [chimyl alcohol, reference compound]
DHA-plasmalogens in N-Rel cells (N-Rel cells [6]; expressed relative to N-Rel controls): increased
DHA plasmalogens in CHO cells (CHO cells): no effect

CC/C=C\C/C=C\C/C=C\C/C=C\C/C=C\C/C=C\CCC(=O)OC(COCCCCCCCCCCCCCCCC)COC(=O)C(CS)NC(C)=O (stereo not shown) [PPI-1014, (4Z,7Z,10Z,13Z,16Z,19Z)-1-(2-acetamido-3-mercaptopropanoyloxy)-3-(hexadecyloxy)propan-2-yl docosa-4,7,10,13,16,19-hexaenoate]
incorporation in N-Rel ethanolamine plasmalogens (PlsEtn) and phosphatidylethanolamines (PtdEtn) (N-Rel cells [6]; 72 hours, 5, 10 and 20 μM): structure-specific and concentration-dependent incorporation

CC/C=C\C/C=C\C/C=C\C/C=C\C/C=C\C/C=C\CCC(=O)OC(CO)COCCCCCCCCCCCCCCCC (stereo not shown) [PPI-1005]
basal and cholesterol (25.8 μM)-stimulated Aβ42 secretion (HEK293 cells [7]; 20 μM): decreases
Aβ42 content in the conditioned medium, drop below cholesterol-loaded levels (HEK293 cells [7]; 20 μM, cholesterol loaded HEK293 cells, 48 hour incubation): 70%
levels of AB-40 (HEK293 cells [7]): decreased
levels of AB-42 (HEK293 cells [7]): decreased
membrane cholesterol esters (esterified cholesterol) (N-Rel cells [1]): increases
membrane free cholesterol (N-Rel cells [1]): decreases
membrane cholesterol levels (N-Rel cells [1]): significant reduction
membrane cholesterol (membrane free cholesterol levels) (HEK293 cells [2]; 48 hr incubation): decrease
free cholesterol content of the cell membrane (HEK293 cells [2]; cholesterol loaded HEK293 cells, 48 hours): significantly reduced
levels of total DHA plasmalogens in N-Rel cells, relative to control CHO cells (N-Rel cells [6]; 72 hr incubation): restored in a concentration-dependent manner
DHA-PlsEtn level (N-Rel cells [6]; N-Rel cells): 80 % of control values
conversion to PlsEtn species (N-Rel cells [6]): effectively converted to PlsEtn species
DHA plasmalogens in CHO cells (CHO cells): concentration-dependent (72 hr) increase
conversion to PlsEtn species (CHO cells): effectively converted to PlsEtn species
SOAT1 upregulation compared with the cholesterol loaded condition (SOAT1; [8]): approximately 25%
concentration-dependent increase in abundance of SOAT1 (SOAT1; [9]): 50%
β-secretase abundance (BACE1; 20 μM, cholesterol loaded HEK293 cells): restored to normal levels
BACE I abundance (BACE1; [9]): No change
APP abundance (APP): No change
increase in sAPPα species in the conditioned medium (sAPPα): 73%
increase in ADAM10 (ADAM10; [8]): 63%
concentration-dependent increase in abundance of ADAM10 (ADAM10; [9]): 35%

CC/C=C\C/C=C\C/C=C\C/C=C\C/C=C\C/C=C\CCC(=O)OC(COCCCCCCCCCCCCCCCC)COC(=O)CC(C[N+](C)(C)C)OC(C)=O (stereo not shown) [PPI-1009, 2-acetoxy-4-(2-((4Z,7Z,10Z,13Z,16Z,19Z)-docosa-4,7,10,13,16,19-hexaenoyloxy)-3-(hexadecyloxy)propoxy)-N,N,N-trimethyl-4-oxobutan-1-aminium]
basal and cholesterol (25.8 μM)-stimulated Aβ42 secretion (HEK293 cells [7]; 10 μM): acted in a similar manner
levels of AB-40 (HEK293 cells [7]): decreased
levels of AB-42 (HEK293 cells [7]): decreased
membrane cholesterol esters (esterified cholesterol) (N-Rel cells [1]): augmentation
membrane free cholesterol (N-Rel cells [1]): most robust decreases
membrane cholesterol levels (N-Rel cells [1]): concentration-dependently decrease
membrane cholesterol levels, concentration response (HEK293 cells [2]; 48 hr incubation): concentration-dependently decrease
time course of incorporation into plasmalogens (N-Rel cells [6]; 10 μM, 0, 6, 12, 24, 48 and 72 hr): incorporation into plasmalogens
cellular levels of chimyl alcohol or the associated alkenyl-acyl-glycerol (N-Rel cells [6]; 10 μM, 0-72 hr, chimyl alcohol by GC-MS): lack of effect
conversion to PlsEtn species (N-Rel cells [6]): effectively converted to PlsEtn species
DHA plasmalogens in CHO cells (CHO cells): concentration-dependent (72 hr) increase
conversion to PlsEtn species (CHO cells): effectively converted to PlsEtn species
